Laboratory results reported in paper PMC7612365 (Cancer Discovery, 2021).
Read-outs that look alike come from different tables or passages of the source.

What was measured:
ABCG2 (BCRP) = target: T1, ABCG2 (BCRP) (Homo sapiens, UniProt Q9UNQ0); assay: Caco-2 permeability assay with BCRP substrate E3S; format: in vitro ADME; details: for interaction with BCRP / B–A apparent permeability of control substrate: Caco-2
T1 construct: Apparent permeability (Papp) was determined in the Caco-2 human colon carcinoma cell line; endogenous in cells; host or cells: Caco-2
T1 sequence (Q9UNQ0 1-655): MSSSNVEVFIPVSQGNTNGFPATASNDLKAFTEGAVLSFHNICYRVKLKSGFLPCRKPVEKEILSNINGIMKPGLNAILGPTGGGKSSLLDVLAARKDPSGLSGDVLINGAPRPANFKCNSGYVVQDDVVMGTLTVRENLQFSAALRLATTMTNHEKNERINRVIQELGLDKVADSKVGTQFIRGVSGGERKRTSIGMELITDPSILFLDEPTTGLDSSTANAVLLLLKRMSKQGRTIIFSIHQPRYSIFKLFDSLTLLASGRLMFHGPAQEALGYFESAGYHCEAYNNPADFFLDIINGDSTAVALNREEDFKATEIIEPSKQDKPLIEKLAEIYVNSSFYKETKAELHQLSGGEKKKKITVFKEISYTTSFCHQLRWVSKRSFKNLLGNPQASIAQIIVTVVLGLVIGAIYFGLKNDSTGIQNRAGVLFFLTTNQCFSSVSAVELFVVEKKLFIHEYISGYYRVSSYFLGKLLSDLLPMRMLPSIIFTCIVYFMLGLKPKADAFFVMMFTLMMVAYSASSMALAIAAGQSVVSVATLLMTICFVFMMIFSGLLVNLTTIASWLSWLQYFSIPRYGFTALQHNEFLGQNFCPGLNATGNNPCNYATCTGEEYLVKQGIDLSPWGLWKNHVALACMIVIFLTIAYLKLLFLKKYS
Protocol: (§1) Apparent permeability (Papp) was determined in the Caco-2 human colon carcinoma cell line. Cells were maintained (DMEM with 10% FBS, penicillin, and streptomycin) in a humidified atmosphere with 5%CO2/95% air for 10 days. Cells were plated out onto a cell culture assembly plate (Millipore), and monolayer confluency was checked using a transepithelial electrical resistance (TEER) electrode prior to the assay. Media were washed off and replaced in the appropriate apical and basal wells with Hank's Balanced Salt Solution buffer (pH 7.4). […] LY335979 (P-gp inhibitor) and Ko134 (BCRP inhibitor) were used as positive controls. The Caco-2 plate was incubated for 2 hours at 37°C in a humidified atmosphere with 5% CO2, and Lucifer yellow was used to confirm membrane integrity after the assay. Samples from the apical and basolateral chambers were analyzed using reverse chromatography tandem mass spectrometry on a Waters TQ-S.

[1] = cited from earlier work
[2] = up to 70 mg weekly ref 54; cited from earlier work
ABCB1 (P-gp) [3] = target: T2, ABCB1 (P-gp) (Homo sapiens, UniProt P08183); assay: Caco-2 permeability assay with P-gp substrate indinavir
T2 sequence (P08183 whole entry): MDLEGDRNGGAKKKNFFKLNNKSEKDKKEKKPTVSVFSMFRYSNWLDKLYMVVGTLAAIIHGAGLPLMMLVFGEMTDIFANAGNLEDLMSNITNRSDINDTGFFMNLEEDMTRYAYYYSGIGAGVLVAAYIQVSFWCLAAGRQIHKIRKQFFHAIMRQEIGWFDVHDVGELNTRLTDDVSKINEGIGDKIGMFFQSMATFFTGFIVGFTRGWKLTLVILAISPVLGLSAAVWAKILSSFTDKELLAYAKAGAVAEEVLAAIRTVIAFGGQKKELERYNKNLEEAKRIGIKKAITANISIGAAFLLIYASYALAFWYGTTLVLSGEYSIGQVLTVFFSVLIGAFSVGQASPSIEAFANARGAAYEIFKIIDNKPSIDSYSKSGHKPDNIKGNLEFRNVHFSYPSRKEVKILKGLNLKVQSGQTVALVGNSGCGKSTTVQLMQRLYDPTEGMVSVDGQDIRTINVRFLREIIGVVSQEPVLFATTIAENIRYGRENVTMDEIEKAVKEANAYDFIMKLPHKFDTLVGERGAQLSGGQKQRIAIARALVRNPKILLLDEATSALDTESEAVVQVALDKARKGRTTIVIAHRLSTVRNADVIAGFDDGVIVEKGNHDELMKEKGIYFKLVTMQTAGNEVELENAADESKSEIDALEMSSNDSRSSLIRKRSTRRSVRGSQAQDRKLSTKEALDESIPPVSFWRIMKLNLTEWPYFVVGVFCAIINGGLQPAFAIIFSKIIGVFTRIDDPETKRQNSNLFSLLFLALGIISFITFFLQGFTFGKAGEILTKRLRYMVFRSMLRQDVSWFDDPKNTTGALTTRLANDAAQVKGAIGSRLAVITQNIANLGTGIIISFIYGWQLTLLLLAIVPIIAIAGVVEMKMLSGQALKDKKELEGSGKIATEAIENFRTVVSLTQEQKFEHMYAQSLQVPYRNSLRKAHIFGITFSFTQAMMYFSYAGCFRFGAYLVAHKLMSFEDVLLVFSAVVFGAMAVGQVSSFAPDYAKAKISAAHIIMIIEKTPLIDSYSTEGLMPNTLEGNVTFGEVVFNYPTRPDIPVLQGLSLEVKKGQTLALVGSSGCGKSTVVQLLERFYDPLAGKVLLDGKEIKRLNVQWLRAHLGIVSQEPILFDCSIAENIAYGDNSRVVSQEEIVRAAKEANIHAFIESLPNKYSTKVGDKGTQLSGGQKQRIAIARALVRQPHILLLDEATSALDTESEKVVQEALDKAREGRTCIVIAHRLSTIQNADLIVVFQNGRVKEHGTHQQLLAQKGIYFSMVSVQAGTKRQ
Protocol: as §1

[4] = Vandetanib brain concentration in non-tumor-bearing mice (LC-MS/MS); format: in vivo, mouse; details: with everolimus compared with vandetanib alone, P = 0.0854
Protocol: Plasma and brain tissue samples were taken in triplicate at 1 hour after the last dose. Analysis was carried out by LC-MS/MS using a Xevo TQS coupled with an Acquity UPLC H-class system (Waters). Chromatography was carried out using a Phenomenex C18 X-B column (2.6 μm, 50 × 2.1 mm). Data acquisition was performed using Targetlynx, version 4.1, and modeling was carried out using Phoenix WinNonlin version 6.3.

[5] = Vandetanib concentration in brain and tumor of nude mice; format: in vivo; details: female, athymic nude, mouse, intraperitoneal, combined with everolimus
Protocol: (§2) Both patient-derived H3F3A^K27M, ACVR1^R206H HSJD-DIPG-007 cells and those derived from a Nestin-Tv-a; Trp53^fl/fl; Hist1h3b^K27M, Acvr1^R206H ([14]) GEMM were used for orthotopic implantation. A single-cell suspension of each culture was made the day before implantation and cultured overnight. On the implantation day, small tumorspheres in exponential growth were harvested by mild centrifugation. Three-week-old female athymic mice were anesthetized with 100 mg/kg ketamine and 10 mg/kg xylazine and immobilized in a stereotaxic apparatus (Stoelting) at coordinates x+0.5 and y−5.4 from the bregma suture. HSJD-DIPG-007 tumorspheres (5 × 10^5 cells), suspended in 5 μL Matrigel (BD Biosciences), were injected at a 3.1-mm depth (targeting the fourth ventricle) with a dull 22-gauge needle attached to a 50-μL syringe (Hamilton), using a stereotaxic arm. The animals (n = 72) were divided in four groups, with treatment starting 4 weeks (day 25) after tumor inoculation. […] Mice were monitored by daily weighing and sacrificed by decapitation upon deterioration of condition or 20% weight loss from the maximum weight achieved, with tissue taken for further analysis. Mouse brains collected at the end of the efficacy study were processed for IHC. […]

[6] = Vandetanib concentration in brain and tumor of NSG mice; format: in vivo; details: mouse, intraperitoneal, combined with everolimus
Protocol: as §2

ABCB1 (P-gp) [7] = target: T2, ABCB1 (P-gp); details: Caco-2
Protocol: as §1

[8] = with everolimus to inhibit P-gp and BCRP ref 41; cited from earlier work
DIPG = details: cited from earlier work
[9] = substrates of efflux transporters ABCB1 (P-gp) and/or ABCG2 (BCRP) ref 27, 28; cited from earlier work
[10] = test system: ACVR1-mutant and wild-type patient-derived DIPG cells; assay: Single-agent cell viability in patient-derived DIPG cells; details: in vitro; P = 0.0272
Protocol: Cells were plated at a density of 2,000 to 4,000 cells/well on laminin-coated 96-well plates in a minimum of triplicates. After 3 days of incubation, compounds were added to each well and incubated at 37°C in 5% CO2, 95% humidity for 8 days (192 hours). […] Cell viability was assessed by the CellTiter-Glo luminescent cell viability assay (Promega).

## CO[C@H]1C[C@@H]2CC[C@@H](C)[C@@](O)(O2)C(=O)C(=O)N2CCCC[C@H]2C(=O)O[C@H]([C@H](C)C[C@@H]2CC[C@@H](OCCO)[C@H](OC)C2)CC(=O)[C@H](C)/C=C(\C)[C@@H](O)[C@@H](OC)C(=O)[C@H](C)C[C@H](C)/C=C/C=C/C=C/1C [everolimus]
ABCG2 (BCRP)
  interaction with BCRP / B–A apparent permeability of control substrate: significantly decreased
[1]; in combination with vandetanib ref 42
  MTD and recommended phase II dose of everolimus: 10 mg once daily
[2]
  mean peak levels compared with standard regimens: tenfold higher
  tolerability of higher doses: well tolerated
ABCB1 (P-gp) [3]
  interaction with P-gp / B–A apparent permeability of control substrate: significantly decreased

## COc1cc2c(Nc3ccc(Br)cc3F)ncnc2cc1OCC1CCN(C)CC1 [vandetanib]
ABCG2 (BCRP)
  interaction with BCRP / B–A apparent permeability of control substrate: weak interactions
ABCG2 (BCRP); Caco-2, combination
  effect of adding vandetanib to everolimus on BCRP substrate permeability: no effect
[4]
  increase of median brain concentration of vandetanib: 56%
[5]; normal brain
  concentration at 2 h: > 15 µM
[5]; tumour (PDX)
  concentration at 2 h: > 15 µM
[6]; normal brain
  concentration at 2 h: 10 µM
[6]; tumour (GEMM allograft)
  concentration at 2 h: < 5 µM
ABCB1 (P-gp) [7]
  interaction with P-gp / B–A apparent permeability of control substrate: weak interactions
[1]; in combination with everolimus ref 42
  MTD and recommended phase II dose of vandetanib: 300 mg once daily
[8]
  vandetanib brain concentrations in mice: significantly increased
DIPG; in vivo
  DLT (diarrhea grade 3): one
  RP2D: 145 mg/m^2/d
  patients with grade 4 hypertension and posterior reversible encephalopathy syndrome: two
DIPG; single agent ref 32
  2-year OS: 21.4%
  MTD: not reached
  objective responses: no objective responses
[9]
  brain exposure: insufficient brain exposures
[10]
  enhanced difference in cell viability, ACVR1-mutant compared with wild-type DIPG cells: approximately twofold

## C[C@@H](Oc1cc(-c2cnn(C3CCNCC3)c2)cnc1N)c1c(Cl)ccc(F)c1Cl [crizotinib]
[9]
  brain exposure: insufficient brain exposures
